Measurements published in patent US7935335B2, “Strains belonging to the genus Paenibacillus and method of controlling plant disease by using these strains or culture thereof” (Kaken Pharmaceutical Co., Ltd., priority 2004, dated 2011).

What was measured:
[1] = tested on: cucumber bacterial blight bacterium (Pseudomonas syringae pv. lachrymans); assay: Evaluation Example 3: control effect on cucumber bacterial blight, plant foot drench; format: in vivo; details: 20 ppm
Experimental: Each of plastic pots was filled with horticultural compost and sown with cucumber (cultivar: Suyo), followed by growing in a greenhouse for 20 days. The cucumber young seedling having a developed second true leaf was subjected to plant foot drench treatment with the formulation obtained in the above-mentioned preparation example, in a proportion of 5 mL per seedling. After the pots were allowed to stand in a glass house at 25° C. for 3 days, the plants were inoculated with a suspension (1×10^8 CFU/mL) of cucumber bacterial blight bacterium (Pseudomonas syringae pv. lachrymans) in distilled water by spraying. The pots were allowed to stand in a dark moist chamber at 25° C. for 24 hours and then in a glass house at 25° C. for 7 days to cause the disease. Lesions in each leaf were counted and the protective value was calculated from the number of the lesions by the following equation to make a comparison with respect to control effect. Protective value={1−(number of lesions on treated plot/number of lesions on untreated plot)}×100

parsley cultured cells = assay: Activity of inducing disease resistance: elicitor responsiveness of parsley cultured cells, phytoalexin detection by fluorescence; format: cell-based; details: Evaluation Example 1; elicitor treatment Yes; 2.5 μM
[2] = tested on: strawberry anthracnose fungus (Glomerella cigulata); assay: Test Example 4: control effect of purified spores on strawberry anthracnose; format: in vivo; details: 20 ppm
Experimental: Strawberry seedlings (cultivar: Akihime) cultivated in plastic pots and having about 10 developed leaflets were subjected to foliage application treatment with a spore preparation sample of strain BS-0105 obtained by formulating the bacterium of the present invention produced by the method described in Production Example 5, by the method described in Formulation Example 2, so that the proportion of cells might be 2×10^7 CFU/mL. After the pots were allowed to stand in a dark moist chamber at 25° C. for 24 hours and then in a glass house at 25° C. for 3 days (or 1 day in the case of Amister 20 flowable), the plants were inoculated with a suspension of strawberry anthracnose fungus conidia in distilled water (Glomerella cigulata, 2×10^6 spores/ml) by spraying. The pots were allowed to stand in a dark moist chamber at 25° C. for 24 hours and then in a glass house at 25° C. for 14 days to cause the disease. The disease severity was calculated by the following equation and the protective value was calculated from the disease severity values by the following equation to make a comparison with respect to control effect. […]

SMILES: CSC(=O)c1cccc2nnsc12 [Acibenzolar-S-methyl, S-methyl 1,2,3-benzothiazole-7-carboxylate]
- Number of lesions per leaf [1]: 137.8 b
- Protective value [1]: 78.8
- Relative fluorescence (parsley cultured cells): 754.3
- Disease severity [2]: 10.9 b
- Protective value [2]: 85.1
